The text below walks through data of patent US4017639A, “2-Hydroxy-3-nitro-1,4-naphthoquinones for the prophylaxis of certain allergies” (Beecham Group Limited, priority 1974, dated 1977).

In this assay the test system is PCA response. In words: rat Passive Cutaneous Anaphylaxis Test (PCA test). The assay is classed as in vivo, rat (male Wistar). The note with it: sc, subcutaneous, as sodium salt. The procedure:
All of the compounds of the formula (I) prepared in the preceding examples were tested in the rat Passive Cutaneous Anaphylaxis Test (PCA test) described below. They were administered as their sodium salts either in pH 7.2 phosphate buffer (for soluble salts) or as a suspension in 1% methyl cellulose (for insoluble salts).
Male Wistar rats of 250-300 g were injected intraperitoneally with 0.5 ml. of Bordatella pertussis vaccine (containing 4 × 10^10 dead organism per ml) and subcutaneously with 0.5 ml. of an emulsion of 100 mg of ovalbumin in 2 ml. of saline and 3 ml. of incomplete Freunds' adjuvant. Rats were bled by cardiac puncture on day 18, the blood was pooled and separated and serum stored at -20° and thawed only once before use.
0.1 ml. of each of six twofold serial dilutions of the serum in 0.9% saline were injected intradermally into separate sites on the shaved dorsal surface of 250-350 g. Male Wister rats. 72 hours later the animals were challenged by i.v. injection of 0.3 ml. of 1% ovalbumin mixed with 0.1 ml. of a 5% solution of pontamine sky blue dye both in isotonic saline buffered with pH 7.2 Sorenson buffer (P.B.S.). The rats were killed after 20 minutes and the diameter of the blue wheals at the antibody injection sites were measured. The starting dilution of the serum was adjusted so that there was no response, after challenge, at the site of injection of the highest dilution and a maximum response at the two or three lowest dilutions.
Amounts of the compounds were administered to rats by subcutaneous injection, into the nucal region, of a solution of the compound in P.B.S. or as a suspension in 1% methyl cellulose, each amount to a test group of six animals at a specified time prior to intravenous challenge with ovalbumin.
For those compounds having insoluble sodium salts, the salts were isolated by reaction of the free nitro compound with 2.5N sodium hydroxide and the filtered sodium salt washed free of alkali with water. The dried salts were then administered as a suspension in 1% methyl cellulose.

Where [1] appears, read: 0.5 h, time 30 mins before challenge.
Setting [2] is: 10 min, time 10 mins before challenge.

A word on the inhibition in vivo: it is the percentage by which the read-out fell short of the control. Consider `O=C1C(O)=C([N+](=O)[O-])C(=O)c2ccccc21` [Example 1, 2-Hydroxy-3-nitro-1,4naphthoquinone], for which, under setting [1], the inhibition in vivo at 25 mg/kg was determined as 16% and the inhibition in vivo at 100 mg/kg is 30%.
On to `Cc1ccc2c(c1)C(=O)C([N+](=O)[O-])=C(O)C2=O` [Example 2, 2-Hydroxy-6-methyl-3-nitro-1,4-naphthoquinone], for which, under setting [1], the inhibition in vivo at 25 mg/kg was 33% and the inhibition in vivo at 100 mg/kg was found to be 30%.
In the case of `O=C1C([N+](=O)[O-])=C(O)C(=O)c2c(O)cccc21` [Example 3, 3,5-Dihydroxy-2-nitro-1,4-naphthoquinone], the inhibition in vivo at 25 mg/kg under setting [1] was 14%. The inhibition in vivo at 72 mg/kg (0.5 h, dose 72 mg/Kg, time 30 mins before challenge) amounted to 18%.
`Cc1cccc2c1C(=O)C(O)=C([N+](=O)[O-])C2=O` [Example 4, 3-Hydroxy-5-methyl-2-nitro-1,4-naphthoquinone]: the inhibition in vivo at 0.5 mg/kg (10 min, dose 0.5 mg/Kg, time 10 mins before challenge) was 6%. Under setting [2], the inhibition in vivo at 1 mg/kg is 16%, the inhibition in vivo at 2 mg/kg amounted to 16% and the inhibition in vivo at 4 mg/kg came out at 29%.
Regarding `COc1ccc2c(c1)C(=O)C(O)=C([N+](=O)[O-])C2=O` [Example 5, 3-Hydroxy-6-methoxy-2-nitro-1,4-naphthoquinone], under setting [2], the inhibition in vivo at 5 mg/kg turned out to be 22%, the inhibition in vivo at 10 mg/kg stood at 41%, the inhibition in vivo at 20 mg/kg is 65% and the inhibition in vivo at 40 mg/kg amounted to 85%.
As for `Cc1ccc2c(c1)C(=O)C(O)=C([N+](=O)[O-])C2=O` [Example 6, 3-Hydroxy-6-methyl-2-nitro-1,4-naphthoquinone], under setting [2], the inhibition in vivo at 5 mg/kg was determined as 19%, the inhibition in vivo at 10 mg/kg is 36%, the inhibition in vivo at 20 mg/kg worked out at 33% and the inhibition in vivo at 40 mg/kg is 52%.
Turning to `Cc1cc2c(cc1C)C(=O)C([N+](=O)[O-])=C(O)C2=O` [Example 7, 6,7-Dimethyl-2-hydroxy-3-nitro-1,4-naphthoquinone], under setting [1], the inhibition in vivo at 25 mg/kg is 18% and the inhibition in vivo at 100 mg/kg stood at 27%.
For the molecule `CCOc1ccc2c(c1)C(=O)C(O)=C([N+](=O)[O-])C2=O` [Example 8, 6-Ethoxy-3-hydroxy-2-nitro-1,4-naphthoquinone], under setting [2], the inhibition in vivo at 5 mg/kg amounted to 25%, the inhibition in vivo at 10 mg/kg stood at 28%, the inhibition in vivo at 20 mg/kg turned out to be 54% and the inhibition in vivo at 40 mg/kg is 79%.
With `COc1cc2c(cc1OC)C(=O)C([N+](=O)[O-])=C(O)C2=O` [Example 9, 6.7-Dimethoxy-2-hydroxy-3-nitro-1,4-naphthoquinone], under setting [2], the inhibition in vivo at 5 mg/kg was determined as 28%, the inhibition in vivo at 10 mg/kg amounted to 39%, the inhibition in vivo at 20 mg/kg was 75% and the inhibition in vivo at 40 mg/kg worked out at 84%.
With `O=C1C(O)=C([N+](=O)[O-])C(=O)c2ccc(Br)cc21` [Example 10, 6-Bromo-3-hydroxy-2-nitro-1.4-naphthoquinone], the inhibition in vivo at 100 mg/kg runs as follows: under setting [2], 5%; under setting [1], 13%.
Regarding `O=C1C(O)=C([N+](=O)[O-])C(=O)c2ccc(F)cc21` [Example 11, 6-Fluoro-3-hydroxy-2-nitro-1,4-naphthoquinone], the inhibition in vivo at 100 mg/kg runs as follows: under setting [2], 13%; under setting [1], 16%.
Regarding `CCc1cc2c(cc1CC)C(=O)C([N+](=O)[O-])=C(O)C2=O` [Example 12, 6,7-Diethyl-2-hydroxy-3-nitro-1,4-naphthoquinone], under setting [2], the inhibition in vivo at 1 mg/kg stood at 11%, the inhibition in vivo at 2 mg/kg stood at 23% and the inhibition in vivo at 4 mg/kg came out at 26%. Moreover, the inhibition in vivo at 8 mg/kg (10 min, dose 8 mg/Kg, time 10 mins before challenge) was 55%.
For the molecule `O=C1C(O)=C([N+](=O)[O-])C(=O)c2cc3c(cc21)CCCC3` [Example 13, 2-Hydroxy-3-nitro-6,7-tetramethylene-1,4-naphtoquinone], under setting [2], the inhibition in vivo at 5 mg/kg is 72%, the inhibition in vivo at 10 mg/kg stood at 80%, the inhibition in vivo at 20 mg/kg worked out at 87% and the inhibition in vivo at 40 mg/kg is 90%.
With `O=C1C(O)=C([N+](=O)[O-])C(=O)c2ccc(-c3ccccc3)cc21` [Example 14, 2-Hydroxy-3-nitro-7-phenyl-1,4-naphthoquinone], under setting [2], the inhibition in vivo at 10 mg/kg stood at 20%, the inhibition in vivo at 20 mg/kg came out at 12% and the inhibition in vivo at 40 mg/kg was 23%. Moreover, the inhibition in vivo at 80 mg/kg (10 min, dose 80 mg/Kg, time 10 mins before challenge) turned out to be 23%.
